Measured values: patent publication US20250049735A1, “MEDICINE FOR STEATOHEPATITIS” (The University of Tokyo, priority 2021, published 2025)

System: Atp8b1 E-KO mice
Procedure: All animal experiments were approved by and performed in accordance with the guidelines of the animal experiment committee of the University of Tokyo. To generate Atp8b1^flox/flox mice, ICR and C57BL/6J mice were purchased from Charles River Laboratories International, Inc. (Yokohama, Japan). Mice were kept under pathogen-free conditions at a room temperature of 23.5° C.±2.5° C. and a relative humidity of 52.5%+12.5% under a 14-hour light: 10-hour dark cycle. […] In order to supplement choline to pups, mother mice were fed with a 1.0% choline supplemented diet (D20011404, Research Diets) until weaning of their pups.
Male 3 to 4-week-old intestinal epithelial cell-specific Atp8b1 knockout (Atp8b1 E-KO) mice and control mice (littermate Flox/Flox mice) underwent laparotomy under isoflurane anesthesia. […] The blood was centrifuged at 1,700×g for 15 minutes, and plasma was separated. Thereafter, the plasma was flash-frozen in liquid nitrogen and was stored at −80° C. The liver was excised and was then flash-frozen in liquid nitrogen, and thereafter, the thus frozen liver was stored at −80° C., or was used for histological and electron microscopic analyses. The small intestine was excised, was then rinsed with cold PBS containing 0.5m M taurocholic acid, and was then used for histological and electron microscopic analyses, or for preparation of epithelial cells. To isolate epithelial cells from small intestine, TTDR kit (Becton Dickinson, Becton Drive Franklin Lakes, NJ) was used. According to the manufacturer's instructions included with the kit, the small intestine was opened longitudinally, was sliced into small fragments with a size of roughly 2 mm. The fragments were incubated with 1×TTDR diluted with DMEM (11995-065, gibco) at 37° C. for 30 minutes, and the resulting fragments were then mixed with 2 mM EDTA/PBS containing 1% BSA. The thus obtained mixture was filtrated through a 70 μm cell strainer (VWR21008-952; Corning Inc, Corning, NY), and was then centrifugated at 250×g at 4° C. for 10 minutes. The obtained cell pellets were incubated with 1×Pharm Lyse (Becton Dickinson, Becton Drive Franklin Lakes, NJ) at room temperature for 15 minutes for the lysis of red blood cells, and the resultant was then mixed with 2 mM EDTA/PBS containing 1% BSA. The thus obtained mixture was centrifuged at 250×g at 4° C. for 10 minutes. The prepared epithelial cells were flash frozen in liquid nitrogen, and were then stored at −80° C.
Metabolites were extracted from plasma, liver, and intestinal epithelial cells with methanol. After centrifugation at 20,000×g at 4° C. for 5 minutes, the supernatant was mixed with 400 mM ammonium sulfate at a ratio of 19:1. The mixture was centrifuged at 20,000×g at 4° C. for 5 minutes. The supernatant was applied to the LC/MS/MS system, which consisted of a UHPLC Nexera liquid chromatography system (Shimadzu co., Kyoto, Japan) and a 5500QTRAP mass spectrometer (AB Sciex pte. ltd., Toronto, Canada). The analytes were passed through a ZIC-CHILIC column (2.1×100 mm, 3 μm, Merck Millipore, Darmstadt, Germany) at a temperature of 30° C. with a gradient elution of the mobile phases, 10 mM ammonium formate aqueous solution and acetonitrile at a flow rate at 0.4 mL/min. The eluent was ionized using electrospray ionization and was scanned with an MRM mode (see Yuan et al., Nat. Protoc. 2012, 7 (5), 872-881. https://doi.org/10.1038/nprot.2012.024). Each MRM peak was assigned to a target molecule in comparison with its authentic standard.
The concentrations of choline, betaine, dimethylglycine (N,N-dimethylglycine) and glycerophosphorylcholine (sn-glycero-3-phosphocholine) in plasma were determined by liquid chromatography/tandem mass spectrometry (LC/MS/MS) assay. The sample was mixed with 98-fold volume of ethanol and 1-fold volume of the internal standard (IS) solution (10 μmol/L choline in water, 10 μmol/L glycerophosphorylcholine in water, and 1 μmol/L betaine in water).

[1] = liver of pups, mothers fed 1% choline supplemented diet vs normal diet (0.1% choline)
[2] = liver of pups, mothers fed 1% choline supplemented diet, compared with control mice
[3] = plasma and liver of Atp8b1 E-KO pups, mothers fed 1% choline supplemented diet, summary statement
[4] = plasma of pups, mothers fed 1% choline supplemented diet vs normal diet (0.1% choline)
[5] = plasma of pups, mothers fed 1% choline supplemented diet, compared with control mice
[6] = small intestinal epithelial cells of pups, mothers fed 1% choline supplemented diet vs normal diet (0.1% choline)

C[N+](C)(C)CCO [choline]
concentration of choline in liver [1]: not changed | concentration of glycerophosphorylcholine (GPC) in liver [1]: not changed | concentration of phosphorylcholine in liver [1]: not changed | concentration of betaine in liver [2]: recovered | concentration of dimethylglycine in liver [2]: recovered | concentration of phosphatidylcholine (PC) in liver [2]: recovered | amount of choline in the pups (plasma and liver of Atp8b1 E-KO pups, mothers fed 1% choline supplemented diet vs normal diet, summary statement): no change | amount of betaine in the pups [3]: increased | amount of dimethylglycine in the pups [3]: increased | amount of phosphatidylcholine (PC) in the pups [3]: increased | concentration of choline in plasma [4]: not changed | concentration of glycerophosphorylcholine (GPC) in plasma [4]: not changed | concentration of phosphorylcholine in plasma [4]: not changed | concentration of betaine in plasma [5]: recovered | concentration of dimethylglycine in plasma [5]: recovered | concentration of betaine in small intestinal epithelial cells (small intestinal epithelial cells of pups, mothers fed 1% choline supplemented diet): not changed | concentration of choline in small intestinal epithelial cells [6]: not changed | concentration of glycerophosphorylcholine (GPC) in small intestinal epithelial cells [6]: not changed | concentration of phosphorylcholine in small intestinal epithelial cells [6]: not changed
